Columns and labels:
[1] = system: EO771 (Luc+OVA+) tumor organoids; experiment: EO771 tumor organoid and OVA-specific CD8+ T cell co-culture cytotoxicity; type: cell-based, mouse; conditions: for outcome of combined 2D co-culture, tumor organoid co-culture and antigen presentation screens: 1 μM, 48 h treatment; for organoid dissociation / tumor cell death rates: co-culture with T cells
Excerpt: In accordance with the present disclosure a drug screen platform was used to identify epigenetic inhibitors that increase a cancer cell's sensitivity to CD8+ T-cell cytotoxicity. In one embodiment the drug screen platform is composed of breast tumor organoids and tumor-specific CD8+ T cells. A lentiviral vector expressing OVA was transduced to the Luc+EO771 cells. The resulting OVA+ cells were orthotopically transplanted to C57BL/6 mice to generate syngeneic mammary tumors. The tumors were harvested and dissociated to single cells for 2D culture and only the adherent cells were collected to generate tumor organoids. 2 ml of tumor organoid culture medium (2×10^5 cells per ml) were seeded into 6-well culture plate with ultra-low attachment surface. After 7-day culture, tumor organoids were filtered by cell strainers with nylon mesh between 70 and 150 μm. The tumor organoids with diameter between 70 and 150 μm were treated with drugs for 48 h in the matrigel-free medium. The treated tumor organoids were then co-cultured with the pre-activated and OVA-specific CD8+ T cells from OT-I mice in the breast organoid culture medium containing 10 ng ml-1 IL2 without matrigel for 24 h. The luciferase released from the EO771 cells was measured using a Dual-luciferase report assay system (Promega) on a BioTek Cytation5 imaging reader, to assess the T cell-mediated cytotoxicity effect.
Cytotoxicity of CD8+ T cells in the co-culture with tumor organoids We generated mouse EO771 (Luc+OVA+) cell line that presents OVA257-264 antigen (from chicken ovalbumin) and human MDA-MB-468 (NY-ESO-1+) cell line that presents NY-ESO-1 antigen for use in the T cell-mediated cytotoxicity assay. OVA-specific CD8+ T cells were isolated from the spleen of OT-I mouse that contains transgenic inserts of Tcra-V2 and Tcrb-V5 genes. The transgenic T cell receptor can recognize the ovalbumin peptide SIINFEKL (OVA257-264; SEQ ID NO: 55). Anti-NY-ESO-1 human CD8^+ T cells (CELLERO™) were used to recognize the NY-ESO-1+ MDA-MB-468 cells. Autologous human CD8+ T cells were isolated from patient tumor tissues and amplified in the DMEM/F12 medium supplemented with 10% FBS, 2 mM Ultraglutamine I, 1% penicillin/streptomycin and 10 ng mL-1 of human IL2 for 7 days. The CD8+ T cells were stimulated by the T-activator CD3/CD28 Dynabeads (Gibco, 11452D for mouse and 11131D for human) for 48 h prior to use for cytotoxicity assay. Mouse and human tumor organoids with diameter between 70 and 150 μm were collected and mixed with corresponding CD8+ T cells in DMEM/F12 medium supplemented with 10% FBS, 2 mM Ultraglutamine I, 1% penicillin/streptomycin and 10 ng mL-1 IL2 (Biolegend, mouse: 575402; human: 589102) at a ratio of organoids versus T cells at 1:200 in the microplates with ultra-low attachment surface. The cells were co-cultured for 24 h and subject to further analyses, such as optical and fluorescence imaging, luciferase assay or flow cytometry.
Epigenetic inhibitor screen on CD8+ T cell-mediated cytotoxicity: The epigenetic inhibitor library (Cayman chemical, Cat #11071, Batch #0522205, data not shown) was used for drug screen. Three different screen methods were conducted. In tumor organoid-T cell co-culture, EO771 (Luc+OVA+) tumor organoids with diameter between 70 and 150 μm were seeded with 100 organoids/well and treated with 1 μM of drug for 48 h. The tumor organoids were centrifuged at 100 rcf for 5 min. The medium were replaced with fresh T cell culture medium containing OVA-specific T cells. A total of 20,000 T cells were added in each well. After co-culture for 24 h, cytotoxicity of tumor cells was measured using a Dual-luciferase report 1000 assay system (Promega) in which luciferase expressed exclusively in the live EO771 (Luc+OVA+) cells was detected by a BioTek Cytation5 imaging reader. Low levels of luciferase from survived tumor cells refer to high cytotoxicity in the co-culture. […]

[2] = system: OVA-specific CD8+ T cells; experiment: T cell effector function in EO771 organoid co-culture; type: cell-based, mouse; conditions: for IFNγ, GZMB and TNFα expression levels in the co-cultured CD8+ T cells: co-cultured with drug-treated tumor organoids; for secreted IFNγ and TNFα (ELISA): vs T cells co-cultured with untreated organoids
Procedure: T cell effector function analysis: We measured cytokine and cytolytic granule production (IFNγ, GZMB and TNFα) of CD8+ T cells from mouse tumor samples and tumor organoid-T cell co-culture. Briefly, CD8+ T cells were placed into the 24-well plate at 1×10^6 cells/well, stimulated with 1 μM ionomycin and 50 ng ml-1 phorbol 12-myristate 13-acetate (PMA) (Sigma-Aldrich) for 4 h, in the presence of 5 μg ml-1 Brefeldin A (BFA), with the purpose to amplify the expression of intracellular cytokines61. The cells were stained with APC/Cy7-conjugated anti-CD8a (Biolegend) for 15 min and then fixed by 4% PFA. After washing, cells were stained with PerCP/Cy7-conjugated anti-GZMB, APC-conjugated anti-IFNγ and PE-conjugated anti-TNFα (Biolegend) for 15 min. In flow cytometric analyses, T cells stained with isotype control antibodies were used as negative controls for gating the cytokine or granule-producing cells. For T cells from tumor organoid-T cell co-culture, tumor organoids were first digested into single cells with TrypLE Express at 37° C. before APC/Cy7-conjugated anti-CD8a staining. In the IFNγ and TNFα secretion assay (Biolegend), T cells were stimulated with ionomycin and PMA without the presence of BFA. The media were collected for ELISA assay.

[3] = system: NY-ESO-1+ MDA-MB-468 cells; experiment: NY-ESO-1+ MDA-MB-468 organoid and NY-ESO-1-specific CD8+ T cell co-culture cytotoxicity; type: cell-based, human; conditions: MDA-MB-468/CAF organoids; FIG. 2C
Procedure: Breast tumor organoid culture: Single cells isolated from EO771-derived tumors in tumor-bearing C57BL/6 mice were suspended into cold mouse breast cancer culture medium containing 10% Matrigel (Corning) with a concentration of 2×10^5 cells ml^−1. The cells (2 ml) were seeded into each well of pre-warmed 6-well microplate with ultra-low attachment surface (Corning) and cultured at 37° C. with 5% CO2. The same volume of fresh culture medium was added every other day. After 7-day culture, tumor organoids were collected using cell strainers with pore size of 70 and 150 μm. For human tumor organoid culture, 2 ml of NY-ESO-1+ MDA-MB-468 cells with a concentration of 2×10^5 cells ml-1 were seeded into each well of the prewarmed 6-well microplate with ultra-low attachment surface. The cells were cultured for two days to generate tumor spheroids. The resulting spheroids were mixed with cancer associated fibroblasts (CAFs) with a ratio of 2:1 (tumor cells versus CAFs) and cultured in the human breast cancer organoid culture medium3 for 5 days. Finally, the MDA-MB-468 tumor organoids with diameter of 70˜150 μm were used for co-culture with NY-ESO-1-specific human CD8+ T cells (ASTARTE Biologics). Patient-derived organoids (PDOs) were cultured following the same procedures as mouse EO771 tumor organoids using human breast cancer organoid culture medium.
Cytotoxicity of CD8+ T cells in the co-culture with tumor organoids We generated mouse EO771 (Luc+OVA+) cell line that presents OVA257-264 antigen (from chicken ovalbumin) and human MDA-MB-468 (NY-ESO-1+) cell line that presents NY-ESO-1 antigen for use in the T cell-mediated cytotoxicity assay. OVA-specific CD8+ T cells were isolated from the spleen of OT-I mouse that contains transgenic inserts of Tcra-V2 and Tcrb-V5 genes. The transgenic T cell receptor can recognize the ovalbumin peptide SIINFEKL (OVA257-264; SEQ ID NO: 55). […] The cells were co-cultured for 24 h and subject to further analyses, such as optical and fluorescence imaging, luciferase assay or flow cytometry.

| SMILES | outcome of combined 2D co-culture, tumor organoid co-culture and antigen presentation screens [1] | organoid dissociation [1] | tumor cell death rates [1] | IFNγ, GZMB and TNFα expression levels in the co-cultured CD8+ T cells [2] | secreted IFNγ and TNFα (ELISA) [2] | T cell-mediated cytotoxicity [3] | promotion of T cell-mediated cytotoxicity after knockdown of B2M ([1]; shB2M OVA+ EO771 cells, FIG. 4G) |
| --- | --- | --- | --- | --- | --- | --- | --- |
| c1ccc([C@@H]2C[C@H]2NC2CCNCC2)cc1 [GSK-LSD1] | increase the antigenicity of tumor cells and enhance their response to cytotoxic T cells | greater organoid dissociation | higher tumor cell death rates | remarkably up-regulated | much higher levels | pronouncedly induced | – |
| C#Cc1cccc(Nc2ncnc3cc(OC)c(OCCCCCCC(=O)NO)cc23)c1 [CUDC-101] | increase the antigenicity of tumor cells and enhance their response to cytotoxic T cells | greater organoid dissociation | higher tumor cell death rates | remarkably up-regulated | much higher levels | pronouncedly induced | – |
| Nc1ccccc1NC(=O)CCCCCCC(=O)Nc1ccccc1 [BML-210] | increase the antigenicity of tumor cells and enhance their response to cytotoxic T cells | greater organoid dissociation | higher tumor cell death rates | remarkably up-regulated | much higher levels | pronouncedly induced | completely abolished |
